This is an account of results in publication PMC11477000, “Enantioselective Binding of Proton Pump Inhibitors to Alpha1-Acid Glycoprotein and Human Serum Albumin—A Chromatographic, Spectroscopic, and In Silico Study” (International Journal of Molecular Sciences, 2024).

In assay [1] the target is T1, HSA (Homo sapiens, UniProt P02768).
T1 construct: purchased Sigma-Aldrich
Nature of the assay: UV titration (Benesi–Hildebrand) with HSA. The format is binding. The conditions noted are these: n = 3, 1 μM HSA, pH 7.4 phosphate buffer, 24 °C, 278 nm, read-out: logKHSA ± Stdev. (logarithm of stability constant) (converted). The protocol: The UV-Vis absorption assay is a straightforward and relatively simple method to examine the interactions between small molecules and macromolecules. Changes in the structure of the protein caused by the interacting ligand can lead to alterations in the absorption spectrum. […] Fixed wavelength measurements were conducted at the absorption maxima of AGP and HSA. […] The change in the absorbance and wavelength maximum in the UV spectra during the titration refers to the complex formation between proteins and PPIs. The Benesi–Hildebrand method was used to determine the stability constants based on Equation (7).
The absorption spectra were recorded on a Jasco V-750 spectrophotometer (Jasco, Tokyo, Japan) at 24 °C using 1.0 cm path-length quartz cuvettes. Then, 1 μM HSA and AGP were dissolved in a sodium phosphate buffer solution (pH 7.4; 0.1 M) and their concentration was kept constant. The PPIs were dissolved in DMSO, and further diluted with the AGP or HSA solution. Next, 1000 μL of 1 μM HSA and AGP solutions was titrated with the PPI stock solution in 1 μL steps. The concentration of the PPIs was set to 4.00, 7.98, 11.96, 15.94, 19.90, 23.86, 27.81, and 31.75 μM. The binding constants were determined using the Benesi–Hildebrand equation:(7) A0/A−A0=εPPI/εAPPI−εPPI+εPPI/εAPPI−εPPI×1/K×[C] where A0 is the absorbance of the HSA or AGP at 278 nm, A is the absorbance of the formed complex also at 278 nm, εPPI is the extinction coefficient of the actual PPI, εAPPI is the extinction coefficient of the albumin or AGP and PPI complex, K is the binding coefficient, and [C] is the concentration of the investigated PPI. The plot of A0/A − A0 versus C^−1 has a slope of K^−1. All experiments were performed in triplicate.

Assay [2] addresses human serum albumin (HSA) (Homo sapiens, UniProt P02768). Nature of the assay: HPLC on HSA-based chiral stationary phase (Daicel Chiralpak HSA column). The format is binding. The conditions noted are these: based on the elution order of enantiomers on the HSA column. The protocol:
HPLC using a protein-based chiral stationary phase is a fully automated method for obtaining rapid information about the binding of compounds to the respective proteins. Enantioseparation occurs in the case of unequal binding constants of the individual enantiomers to the immobilized proteins, thus allowing enantioselective binding to be characterized even when a racemic mixture was injected. As a preliminary step, the enantiospecific binding was investigated on columns containing AGP and HSA in various alcohol:buffer mixtures. A pH 7 phosphate buffer was employed as the aqueous part of the mobile phase, while for the organic part, three different alcohols were evaluated.
In the following step, we investigated the effect of changing some other chromatographic conditions on the protein binding. The pH of the aqueous phase influenced the protonation state of both the analyte and the proteins. It should be noted that the pH tolerance of protein-based columns is narrow due to the possible denaturation of proteins. Taking into account the guidelines of the manufacturer, three different pH values were investigated (pH 6, 6.5, and 7) at a 95:5 (v/v%) buffer:IPA eluents ratio [49]. The buffer was uniformly 10 mM phosphate. […] The effect of different buffer constituents was also evaluated. In addition to phosphate buffer, ammonium acetate, ammonium bicarbonate, and sodium citrate were tested and compared under the same conditions.
Chromatographic measurements were carried out on two separate HPLC systems. The AGP binding study was performed on a Waters 2695e chromatographic system paired with a Waters 2996 PDA detector, controlled by Empower 3 FR5 (Waters Corp., Milford, MA, USA), while the HSA binding study was performed on an Agilent 1100 HPLC system, consisting of an inline degasser (G1322A), a quaternary pump (G1311A), an automatic injector (G1329A) paired with sample thermostat (G1330A), a column thermostat (G1316A), and a diode array detector (G1315A) with Agilent Chemstation B04.03-SP2 software (Agilent, Bronnwald, Germany). For the binding studies, two protein-based chiral stationary phases were utilized. The chromatographic binding study for AGP was conducted on a ChromTech Chiral-AGP column (150 mm × 4.0 mm; ChromTech Ltd., Congleton, UK), while the binding study for HSA was performed on a Daicel Chiralpak HSA column (50 mm × 4.0 mm; Daicel Corp., Osaka, Japan). The detection wavelength was 210 nm for all measurements. The stock solutions of PPIs were prepared at a concentration of 1 mg/mL in MeOH. Subsequent dilutions were prepared using water. The injected samples were mixed and diluted from the stock solutions. The final concentration for the eutomer was 0.2 mg/mL, and for the distomer, it was 0.1 mg/mL. A volume of 2 μL was injected. To mitigate the instability of PPIs in aqueous solutions, the samples were kept at a temperature of 4 °C.

T1 sequence (P02768 25-609): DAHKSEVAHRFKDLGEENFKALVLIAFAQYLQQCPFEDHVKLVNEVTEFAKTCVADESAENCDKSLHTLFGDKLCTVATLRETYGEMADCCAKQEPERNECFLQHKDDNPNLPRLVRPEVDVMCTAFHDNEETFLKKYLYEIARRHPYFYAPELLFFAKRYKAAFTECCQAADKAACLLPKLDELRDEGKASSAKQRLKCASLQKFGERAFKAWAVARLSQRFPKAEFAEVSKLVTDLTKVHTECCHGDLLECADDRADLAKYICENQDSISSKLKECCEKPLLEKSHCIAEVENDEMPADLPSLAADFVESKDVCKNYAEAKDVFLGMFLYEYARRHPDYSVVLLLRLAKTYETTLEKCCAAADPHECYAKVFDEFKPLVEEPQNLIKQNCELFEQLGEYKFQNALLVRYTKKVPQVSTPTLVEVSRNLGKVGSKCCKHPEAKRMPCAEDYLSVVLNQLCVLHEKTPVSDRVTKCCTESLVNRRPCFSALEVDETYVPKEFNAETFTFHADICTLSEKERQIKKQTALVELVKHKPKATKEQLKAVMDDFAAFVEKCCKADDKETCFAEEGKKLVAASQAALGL
human serum albumin (HSA), sequence (P02768 25-609): as above

Regarding `Cc1c(OCC(F)(F)F)ccnc1C[S@@+]([O-])c1nc2ccccc2[nH]1` [R-lansoprazole, dexlansoprazole], in assay [1], the Kd was 60.3 µM. `Cc1c(OCC(F)(F)F)ccnc1C[S@+]([O-])c1nc2ccccc2[nH]1` [S-lansoprazole]: in assay [2], the “Affinity to HSA compared to the antipode” value is given as “higher affinity”. The Kd in assay [1] was 21.9 µM.
